Bridge positions count the residues as written; N and C are the ends. Square brackets hold non-standard residues; d marks the D form. Peptide text beside a SMILES is read from it. * marks the point of attachment. hPhe(3,5-F2-4-CF3) = N[C@@H](CCc1cc(F)c(C(F)(F)F)c(F)c1)C(=O)O; hPhe(3-Cl-4-CF3) = N[C@@H](CCc1ccc(C(F)(F)F)c(Cl)c1)C(=O)O; hPhe(3-F,4-CF3) = N[C@@H](CCc1ccc(C(F)(F)F)c(F)c1)C(=O)O; NEtPhe(4-CF3) = CCN[C@@H](Cc1ccc(C(F)(F)F)cc1)C(=O)O; NMePhe(4-CF3) = CN[C@@H](Cc1ccc(C(F)(F)F)cc1)C(=O)O; 3Oxa8azabicyclo(3.2.1)octane = C1CC2COCC1N2*; NEtPhe(4-Me) = CCN[C@@H](Cc1ccc(C)cc1)C(=O)O; NMeAbu(4,4,4-F3) = CN[C@@H](CC(F)(F)F)C(=O)O; NMePhe(4-Me) = CN[C@@H](Cc1ccc(C)cc1)C(=O)O; NMeAla(cPent) = CN[C@@H](CC1CCCC1)C(=O)O; NMeGly(cPent) = CN[C@H](C(=O)O)C1CCCC1; NMeGly(cBu) = CN[C@H](C(=O)O)C1CCC1; NMeCha = CN[C@@H](CC1CCCCC1)C(=O)O; Hyp = O=C(O)[C@@H]1C[C@@H](O)CN1; NEtLeu = CCN[C@@H](CC(C)C)C(=O)O; NMeChg = CN[C@H](C(=O)O)C1CCCCC1; NMeI = CC[C@H](C)[C@H](NC)C(=O)O; NMeD = CN[C@@H](CC(=O)O)C(=O)O; NMeL = CN[C@@H](CC(C)C)C(=O)O; Oxazolidin(3-yl) = C1CN(*)CO1; NMeV = CN[C@H](C(=O)O)C(C)C; d(β3hA) = C[C@@H](N)CC(=O)O; Azetidin(1-yl) = C1CN(*)C1; Morpholide = C1CN(*)CCO1; NMeA = CN[C@@H](C)C(=O)O; Piperidide = C1CCN(*)CC1; Pyrrolidide = C1CCN(*)C1; Ac5c = NC1(C(=O)O)CCCC1; Aze = O=C(O)[C@@H]1CCN1; NEtG = CCNCC(=O)O; Sar = CNCC(=O)O
What was measured:
[1] = system: Human pancreatic cancer cell line AsPC-1 (G12D mutation Kras); assay: AsPC-1 cell growth inhibition (AsPC-1 CGI); format: cell-based; details: read-out: AsPC-1 cell growth inhibition, 50% growth inhibitory concentration (IC50 value); 96 hours, CellTiter-Glo, values classified in ranges
[2] = target: protein-protein interaction between Kras and SOS1 (biotin-tagged human Kras loaded with GDP, His-tagged human SOS1) (Homo sapiens (Human), UniProt P01116, G12D); assay: Protein-protein interaction inhibition between Kras and SOS1 (KrasG12D-SOS PPI) using AlphaScreen; format: biochemical; details: AlphaScreen; biotin-tagged human Kras loaded with GDP, His-tagged human SOS1; read-out: KRAS G12D-SOS PPI IC50;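 further: kras produced in E. coli, Ni-coupled donor beads and streptavidin acceptor beads, excitation 680 nm with emission detected at 520–620 nm via singlet oxygen transfer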

| SMILES | IC50 [1] [nM] | IC50 [2] [nM] |
| --- | --- | --- |
| CC[C@H](C)[C@@H]1NC(=O)[C@H](CC(C)C)N(C)C(=O)C[C@@H](C(=O)N2CCCCC2)N(C)C(=O)[C@H](C(C)C)N(C)C(=O)[C@@H](C)NC(=O)[C@@H]2CCCN2C(=O)[C@H](CCc2ccc(C(F)(F)F)c(Cl)c2)NC(=O)CN(C)C(=O)[C@H](CC2CCCCC2)N(C)C(=O)[C@@H]2CCN2C(=O)[C@H](C)N(C)C1=O [Compound 1174] ([NMeL]I[NMeA][Aze][NMeCha][Sar][hPhe(3-Cl-4-CF3)]P[dA][NMeV][NMeD]-Piperidide; lactam N-11) | > 500 | 62 |
| CC[C@H](C)[C@@H]1NC(=O)[C@H](CC(C)C)N(C)C(=O)C[C@@H](C(=O)N2CCCC2)N(C)C(=O)[C@H]([C@@H](C)CC)N(C)C(=O)C2(CCCC2)NC(=O)[C@@H]2CCCN2C(=O)[C@H](CCc2cc(F)c(C(F)(F)F)c(F)c2)NC(=O)CN(C)C(=O)[C@H](Cc2ccc(C(F)(F)F)cc2)N(CC)C(=O)[C@@H]2CCN2C(=O)[C@H](C)N(C)C1=O [Compound 1175] ([NMeL]I[NMeA][Aze][NEtPhe(4-CF3)][Sar][hPhe(3,5-F2-4-CF3)]P[Ac5c][NMeI][NMeD]-Pyrrolidide; lactam N-11) | ≤ 20 | 0.79 |
| CC[C@H](C)[C@@H]1NC(=O)[C@H](CC(C)C)N(C)C(=O)C[C@@H](C(=O)N2CCOC2)NC(=O)[C@H](C(C)C)N(C)C(=O)C2(CCCC2)NC(=O)[C@@H]2CCCN2C(=O)[C@H](CCc2ccc(C(F)(F)F)c(Cl)c2)NC(=O)CN(C)C(=O)[C@H](CC2CCCCC2)N(C)C(=O)[C@@H]2CCN2C(=O)[C@H](C)N(C)C1=O [Compound 1188] ([NMeL]I[NMeA][Aze][NMeCha][Sar][hPhe(3-Cl-4-CF3)]P[Ac5c][NMeV]D-{Oxazolidin(3-yl)}; lactam N-11) | > 500 | 33 |
| CC[C@H](C)[C@@H]1NC(=O)[C@H](CC(C)C)N(CC)C(=O)C[C@@H](C(=O)N2CCCC2)N(C)C(=O)[C@H]([C@@H](C)CC)N(C)C(=O)C2(CCCC2)NC(=O)[C@@H]2CCCN2C(=O)[C@H](CCc2ccc(C(F)(F)F)c(Cl)c2)NC(=O)CN(C)C(=O)[C@H](Cc2ccc(C(F)(F)F)cc2)N(C)C(=O)[C@@H]2CCN2C(=O)[C@H](C)N(C)C1=O [Compound 1190] ([NEtLeu]I[NMeA][Aze][NMePhe(4-CF3)][Sar][hPhe(3-Cl-4-CF3)]P[Ac5c][NMeI][NMeD]-Pyrrolidide; lactam N-11) | ≤ 20 | 0.83 |
| CC[C@H](C)[C@@H]1NC(=O)[C@H](CC2CCCC2)N(C)C(=O)C[C@@H](C(=O)N2CCC2)N(C)C(=O)[C@H](C2CCCC2)N(C)C(=O)C2(CCCC2)NC(=O)[C@@H]2CCCN2C(=O)[C@H](CCc2ccc(C(F)(F)F)c(Cl)c2)NC(=O)CN(C)C(=O)[C@H](CC2CCCCC2)N(C)C(=O)[C@@H]2CCN2C(=O)[C@H](C)N(C)C1=O [Compound 1199] ([NMeAla(cPent)]I[NMeA][Aze][NMeCha][Sar][hPhe(3-Cl-4-CF3)]P[Ac5c][NMeGly(cPent)][NMeD]-{Azetidin(1-yl)}; lactam N-11) | ≤ 20 | 0.7 |
| CC[C@H](C)[C@@H]1NC(=O)[C@H](CC(C)C)N(C)C(=O)C[C@@H](C(=O)N2CCOCC2)NC(=O)[C@H](C(C)C)N(C)C(=O)C2(CCCC2)NC(=O)[C@@H]2CCCN2C(=O)[C@H](CCc2ccc(C(F)(F)F)c(Cl)c2)NC(=O)CN(C)C(=O)[C@H](CC2CCCCC2)N(C)C(=O)[C@@H]2CCN2C(=O)[C@H](C)N(C)C1=O [Compound 1200] ([NMeL]I[NMeA][Aze][NMeCha][Sar][hPhe(3-Cl-4-CF3)]P[Ac5c][NMeV]D-Morpholide; lactam N-11) | > 500 | 45 |
| CCO[C@@H]1C[C@H]2C(=O)NC3(CCCC3)C(=O)N(C)[C@@H](C3CCCCC3)C(=O)N(C)[C@H](C(=O)N3CCCC3)CC(=O)N(C)[C@@H](C3CCC3)C(=O)N[C@@H]([C@@H](C)CC)C(=O)N(C)CC(=O)N(C)CC(=O)N(C)[C@@H](CC3CCCCC3)C(=O)N(C)CC(=O)N[C@@H](CCc3ccc(C(F)(F)F)c(Cl)c3)C(=O)N2C1 [Compound 1204] ([NMeGly(cBu)]I[Sar][Sar][NMeCha][Sar][hPhe(3-Cl-4-CF3)][Hyp](Et)[Ac5c][NMeChg][NMeD]-Pyrrolidide; lactam N-11) | ≤ 20 | 0.44 |
| CC[C@H](C)[C@@H]1NC(=O)[C@H](CC(C)C)N(C)C(=O)C[C@@H](C(=O)N(C)C)N(C)C(=O)[C@H](C2CCCC2)N(C)C(=O)C2(CCCC2)NC(=O)[C@@H]2CCCN2C(=O)[C@H](CCc2ccc(C(F)(F)F)c(F)c2)NC(=O)CN(CC)C(=O)[C@H](CC2CCCCC2)N(C)C(=O)[C@@H]2CCN2C(=O)[C@H](C)N(C)C1=O [Compound 1205] ([NMeL]I[NMeA][Aze][NMeCha][NEtG][hPhe(3-F,4-CF3)]P[Ac5c][NMeGly(cPent)][NMeD]-NMe2; lactam N-11) | ≤ 20 | 2.8 |
| CCO[C@@H]1C[C@H]2C(=O)NC3(CCCC3)C(=O)N(C)[C@@H](C3CCCCC3)C(=O)N(C)[C@H](C(=O)N3CCOCC3)CC(=O)N(C)[C@@H](CC(F)(F)F)C(=O)N[C@@H]([C@@H](C)CC)C(=O)N(C)CC(=O)N(C)CC(=O)N(C)[C@@H](Cc3ccc(C(F)(F)F)cc3)C(=O)N(C)CC(=O)N[C@@H](CCc3ccc(C(F)(F)F)c(Cl)c3)C(=O)N2C1 [Compound 1206] ([NMeAbu(4,4,4-F3)]I[Sar][Sar][NMePhe(4-CF3)][Sar][hPhe(3-Cl-4-CF3)][Hyp](Et)[Ac5c][NMeChg][NMeD]-Morpholide; lactam N-11) | ≤ 20 | 0.57 |
| CC[C@H](C)[C@@H]1NC(=O)[C@H](CC(C)C)N(CC)C(=O)C[C@@H](C(=O)N2CCOCC2)N(C)C(=O)[C@H](C2CCCC2)N(C)C(=O)C2(CCCC2)NC(=O)[C@@H]2CCCN2C(=O)[C@H](CCc2ccc(C(F)(F)F)c(Cl)c2)NC(=O)CN(C)C(=O)[C@H](C2CCCC2)N(C)C(=O)[C@@H]2CCN2C(=O)[C@H](C)N(C)C1=O [Compound 1208] ([NEtLeu]I[NMeA][Aze][NMeGly(cPent)][Sar][hPhe(3-Cl-4-CF3)]P[Ac5c][NMeGly(cPent)][NMeD]-Morpholide; lactam N-11) | ≤ 20 | 0.69 |
| CC[C@H](C)[C@@H]1NC(=O)[C@H](CC(C)C)N(C)C(=O)C[C@@H](C(=O)N2CCOCC2)N(C)C(=O)[C@H]([C@@H](C)CC)N(C)C(=O)C2(CCCC2)NC(=O)[C@@H]2CCCN2C(=O)[C@H](CCc2cc(F)c(C(F)(F)F)c(F)c2)NC(=O)CN(C)C(=O)[C@H](Cc2ccc(C)cc2)N(CC)C(=O)[C@@H]2CCN2C(=O)[C@H](C)N(C)C1=O [Compound 1209] ([NMeL]I[NMeA][Aze][NEtPhe(4-Me)][Sar][hPhe(3,5-F2-4-CF3)]P[Ac5c][NMeI][NMeD]-Morpholide; lactam N-11) | ≤ 20 | 0.85 |
| CCO[C@@H]1C[C@H]2C(=O)NC3(CCCC3)C(=O)N(C)[C@@H]([C@@H](C)CC)C(=O)N(C)[C@H](C(=O)N3CCCC3)CC(=O)N(C)[C@@H](CC(C)C)C(=O)N[C@@H]([C@@H](C)CC)C(=O)N(C)[C@@H](C)C(=O)N3CC[C@H]3C(=O)N(C)[C@@H](Cc3ccc(C(F)(F)F)cc3)C(=O)N(C)CC(=O)N[C@@H](CCc3cc(F)c(C(F)(F)F)c(F)c3)C(=O)N2C1 [Compound 1210] ([NMeL]I[NMeA][Aze][NMePhe(4-CF3)][Sar][hPhe(3,5-F2-4-CF3)][Hyp](Et)[Ac5c][NMeI][NMeD]-Pyrrolidide; lactam N-11) | ≤ 20 | 0.74 |
| CC[C@H](C)[C@@H]1NC(=O)[C@H](CC(C)C)N(C)C(=O)C[C@@H](C(=O)N2CCCCC2)N(C)C(=O)[C@H](C(C)C)N(C)C(=O)[C@H](C)NC(=O)[C@@H]2CCCN2C(=O)[C@H](CCc2ccc(C(F)(F)F)c(Cl)c2)NC(=O)CN(C)C(=O)[C@H](CC2CCCCC2)N(C)C(=O)[C@@H]2CCN2C(=O)[C@H](C)N(C)C1=O [Compound 1211] ([NMeL]I[NMeA][Aze][NMeCha][Sar][hPhe(3-Cl-4-CF3)]PA[NMeV][NMeD]-Piperidide; lactam N-11) | > 500 | 31 |
| CC[C@H](C)[C@@H]1NC(=O)[C@H](CC(C)C)N(C)C(=O)C[C@@H](C(=O)N2C3CCC2COC3)NC(=O)[C@H](C(C)C)N(C)C(=O)C2(CCCC2)NC(=O)[C@@H]2CCCN2C(=O)[C@H](CCc2ccc(C(F)(F)F)c(Cl)c2)NC(=O)CN(C)C(=O)[C@H](CC2CCCCC2)N(C)C(=O)[C@@H]2CCN2C(=O)[C@H](C)N(C)C1=O [Compound 1214] ([NMeL]I[NMeA][Aze][NMeCha][Sar][hPhe(3-Cl-4-CF3)]P[Ac5c][NMeV]D-{3Oxa8azabicyclo(3.2.1)octane}; lactam N-11) | > 500 | 77 |
| CC[C@H](C)[C@@H]1NC(=O)[C@H](CC(C)C)N(CC)C(=O)C[C@@H](C(=O)N2CCOCC2)N(C)C(=O)[C@H](C2CCCC2)N(C)C(=O)C2(CCCC2)NC(=O)[C@@H]2CCCN2C(=O)[C@H](CCc2ccc(C(F)(F)F)c(Cl)c2)NC(=O)CN(C)C(=O)[C@H](CC2CCCCC2)N(C)C(=O)[C@@H]2CCN2C(=O)[C@H](C)N(C)C1=O [Compound 1220] ([NEtLeu]I[NMeA][Aze][NMeCha][Sar][hPhe(3-Cl-4-CF3)]P[Ac5c][NMeGly(cPent)][NMeD]-Morpholide; lactam N-11) | ≤ 20 | 0.64 |
| CC[C@H](C)[C@@H]1NC(=O)[C@H](CC(C)C)N(C)C(=O)C[C@@H](C)NC(=O)[C@H](C2CCCC2)N(C)C(=O)[C@@H](C)NC(=O)[C@@H]2CCCN2C(=O)[C@H](CCc2ccc(C(F)(F)F)c(Cl)c2)NC(=O)CN(C)C(=O)[C@H](Cc2ccc(C)cc2)N(C)C(=O)[C@@H]2CCN2C(=O)[C@H](C)N(C)C1=O [Compound 1222] (cyclo([Aze][NMePhe(4-Me)][Sar][hPhe(3-Cl-4-CF3)]P[dA][NMeGly(cPent)][d(β3hA)][NMeL]I[NMeA])) | > 500 | 25 |

Source: patent US20240148821A1, “PHARMACEUTICAL USE OF CYCLIC PEPTIDE COMPOUND” (CHUGAI SEIYAKU KABUSHIKI KAISHA, priority 2021, published 2024)
